How the values were obtained:
Test in all cases: KiNativ chemical proteomics profiling in HeLa and PC3 cell lysates
Format in all cases: binding
[1] = target: T1, selected panels of kinases in HeLa and PC3 cell lysates (Homo sapiens, UniProt Q9Y4K4); conditions: 10 uM; proteome PC3; peptide […]kIIK; labeling site Lys1
T1 construct: endogenous in cells; host or cells: HeLa and PC3 cell lysates

[2] = target: T2, selected panels of kinases in HeLa and PC3 cell lysates (Homo sapiens, UniProt Q15418); conditions: 10 uM; RSK1 domain1; peptide LTDFGLSkEAIDHEK; proteome HEL; labeling site Activation Loop
T2 construct: endogenous in cells; host or cells: HeLa and PC3 cell lysates
T2 sequence (Q15418 whole entry, the tested form may be a part): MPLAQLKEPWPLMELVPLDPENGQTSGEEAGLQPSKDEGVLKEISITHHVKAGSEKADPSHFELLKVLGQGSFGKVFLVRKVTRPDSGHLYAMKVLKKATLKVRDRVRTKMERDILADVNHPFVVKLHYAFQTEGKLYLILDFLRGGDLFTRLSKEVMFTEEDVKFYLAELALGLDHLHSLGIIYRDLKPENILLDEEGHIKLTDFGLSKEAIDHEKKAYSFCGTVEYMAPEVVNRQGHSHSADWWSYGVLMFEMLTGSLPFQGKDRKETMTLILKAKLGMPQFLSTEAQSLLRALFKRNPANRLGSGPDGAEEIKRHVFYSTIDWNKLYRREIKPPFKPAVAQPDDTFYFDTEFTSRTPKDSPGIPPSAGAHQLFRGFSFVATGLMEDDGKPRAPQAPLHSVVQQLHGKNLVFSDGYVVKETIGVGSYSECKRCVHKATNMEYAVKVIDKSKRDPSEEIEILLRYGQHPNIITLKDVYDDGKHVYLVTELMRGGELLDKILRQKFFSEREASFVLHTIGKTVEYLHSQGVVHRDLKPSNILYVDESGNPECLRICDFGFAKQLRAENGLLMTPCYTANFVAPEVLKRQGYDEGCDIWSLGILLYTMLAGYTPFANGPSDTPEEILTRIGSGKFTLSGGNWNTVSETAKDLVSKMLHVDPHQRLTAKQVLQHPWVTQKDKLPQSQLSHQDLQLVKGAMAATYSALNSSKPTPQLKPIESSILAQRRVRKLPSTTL

[3] = target: T3, selected panels of kinases in HeLa and PC3 cell lysates (Homo sapiens, UniProt Q9NWZ3); conditions: 10 uM, peptide DIk[…], labeling site Lys2
T3 construct: endogenous in cells; host or cells: HeLa and PC3 cell lysates
T3 sequence (Q9NWZ3 1-460): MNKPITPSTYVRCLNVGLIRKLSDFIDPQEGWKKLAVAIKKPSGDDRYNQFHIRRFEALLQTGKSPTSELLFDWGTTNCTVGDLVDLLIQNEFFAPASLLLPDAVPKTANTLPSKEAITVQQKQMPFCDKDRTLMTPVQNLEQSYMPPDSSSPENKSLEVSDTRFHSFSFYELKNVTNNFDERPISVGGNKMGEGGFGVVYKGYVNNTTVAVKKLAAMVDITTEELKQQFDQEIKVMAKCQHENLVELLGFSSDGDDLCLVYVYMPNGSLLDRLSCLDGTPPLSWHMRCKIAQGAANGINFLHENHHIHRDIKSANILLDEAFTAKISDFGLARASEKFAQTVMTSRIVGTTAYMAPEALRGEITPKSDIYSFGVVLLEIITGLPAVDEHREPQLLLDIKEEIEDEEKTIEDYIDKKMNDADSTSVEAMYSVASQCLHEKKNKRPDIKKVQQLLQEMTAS

[4] = target: T4, selected panels of kinases in HeLa and PC3 cell lysates (Homo sapiens, UniProt P00533); conditions: 10 uM, proteome PC3
T4 construct: endogenous in cells; host or cells: HeLa and PC3 cell lysates
T4 sequence (P00533 25-1210): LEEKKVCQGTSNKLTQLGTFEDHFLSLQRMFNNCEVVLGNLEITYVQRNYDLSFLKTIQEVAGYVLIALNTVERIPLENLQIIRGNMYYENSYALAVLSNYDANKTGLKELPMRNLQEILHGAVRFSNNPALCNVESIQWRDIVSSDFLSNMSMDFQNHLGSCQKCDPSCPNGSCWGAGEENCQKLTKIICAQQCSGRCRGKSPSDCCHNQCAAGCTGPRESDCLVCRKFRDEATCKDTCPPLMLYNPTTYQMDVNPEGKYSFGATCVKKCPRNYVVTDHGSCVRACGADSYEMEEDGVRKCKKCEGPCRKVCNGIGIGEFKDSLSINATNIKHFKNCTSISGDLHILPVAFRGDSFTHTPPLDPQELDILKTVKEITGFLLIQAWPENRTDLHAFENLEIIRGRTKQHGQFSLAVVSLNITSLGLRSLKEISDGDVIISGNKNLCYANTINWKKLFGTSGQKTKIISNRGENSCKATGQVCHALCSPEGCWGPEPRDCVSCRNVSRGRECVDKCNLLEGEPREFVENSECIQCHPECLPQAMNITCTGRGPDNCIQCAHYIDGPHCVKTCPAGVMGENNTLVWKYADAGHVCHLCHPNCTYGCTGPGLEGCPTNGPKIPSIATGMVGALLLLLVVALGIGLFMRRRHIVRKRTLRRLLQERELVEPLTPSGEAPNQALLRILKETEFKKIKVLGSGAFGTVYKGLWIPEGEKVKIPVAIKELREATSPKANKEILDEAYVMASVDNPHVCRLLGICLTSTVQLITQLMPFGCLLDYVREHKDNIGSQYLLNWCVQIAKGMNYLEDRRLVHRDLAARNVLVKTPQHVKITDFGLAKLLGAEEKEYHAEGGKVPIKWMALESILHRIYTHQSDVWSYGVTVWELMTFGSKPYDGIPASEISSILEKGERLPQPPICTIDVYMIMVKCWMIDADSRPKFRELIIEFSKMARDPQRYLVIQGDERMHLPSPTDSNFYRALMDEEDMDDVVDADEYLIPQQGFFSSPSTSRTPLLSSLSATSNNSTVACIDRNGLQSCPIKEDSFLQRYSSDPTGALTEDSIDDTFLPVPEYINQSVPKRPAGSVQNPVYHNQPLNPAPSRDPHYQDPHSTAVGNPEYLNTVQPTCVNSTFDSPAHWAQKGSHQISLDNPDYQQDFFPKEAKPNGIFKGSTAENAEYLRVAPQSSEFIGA

[5] = target: T5, selected panels of kinases in HeLa and PC3 cell lysates (Homo sapiens, UniProt Q13043); conditions: 10 uM, peptide […]k[…], labeling site Lys1
T5 construct: endogenous in cells; host or cells: HeLa and PC3 cell lysates
T5 sequence (Q13043 1-487): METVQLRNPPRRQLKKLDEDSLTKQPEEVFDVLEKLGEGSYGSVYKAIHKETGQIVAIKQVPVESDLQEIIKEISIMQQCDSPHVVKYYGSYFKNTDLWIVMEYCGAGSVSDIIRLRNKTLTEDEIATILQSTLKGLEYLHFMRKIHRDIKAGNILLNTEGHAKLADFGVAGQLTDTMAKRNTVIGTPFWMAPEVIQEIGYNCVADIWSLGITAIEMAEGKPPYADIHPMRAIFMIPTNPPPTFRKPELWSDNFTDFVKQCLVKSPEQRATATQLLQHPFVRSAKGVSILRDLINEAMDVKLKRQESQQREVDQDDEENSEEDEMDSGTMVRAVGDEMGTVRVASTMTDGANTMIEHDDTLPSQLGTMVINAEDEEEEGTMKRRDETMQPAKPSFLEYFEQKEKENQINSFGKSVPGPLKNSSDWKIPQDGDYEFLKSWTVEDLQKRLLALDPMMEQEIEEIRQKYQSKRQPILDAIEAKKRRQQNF

[6] = target: T6, selected panels of kinases in HeLa and PC3 cell lysates (Homo sapiens, UniProt P27361); conditions: 10 uM, peptide DLk[…], labeling site Lys2
T6 construct: endogenous in cells; host or cells: HeLa and PC3 cell lysates
T6 sequence (P27361 whole entry): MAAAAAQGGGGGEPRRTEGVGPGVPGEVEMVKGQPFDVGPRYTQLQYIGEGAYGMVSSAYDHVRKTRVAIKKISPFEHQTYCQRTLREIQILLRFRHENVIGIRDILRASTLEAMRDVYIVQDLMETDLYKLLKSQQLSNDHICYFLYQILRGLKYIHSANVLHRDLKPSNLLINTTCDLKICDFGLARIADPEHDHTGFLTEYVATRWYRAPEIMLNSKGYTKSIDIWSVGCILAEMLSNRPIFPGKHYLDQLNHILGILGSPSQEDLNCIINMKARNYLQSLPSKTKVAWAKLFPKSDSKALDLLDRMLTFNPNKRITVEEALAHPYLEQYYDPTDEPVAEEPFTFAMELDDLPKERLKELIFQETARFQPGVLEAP

[7] = target: T7, selected panels of kinases in HeLa and PC3 cell lysates (Homo sapiens, UniProt P29317); conditions: 10 uM, proteome PC3
T7 construct: endogenous in cells; host or cells: HeLa and PC3 cell lysates
T7 sequence (P29317 24-976): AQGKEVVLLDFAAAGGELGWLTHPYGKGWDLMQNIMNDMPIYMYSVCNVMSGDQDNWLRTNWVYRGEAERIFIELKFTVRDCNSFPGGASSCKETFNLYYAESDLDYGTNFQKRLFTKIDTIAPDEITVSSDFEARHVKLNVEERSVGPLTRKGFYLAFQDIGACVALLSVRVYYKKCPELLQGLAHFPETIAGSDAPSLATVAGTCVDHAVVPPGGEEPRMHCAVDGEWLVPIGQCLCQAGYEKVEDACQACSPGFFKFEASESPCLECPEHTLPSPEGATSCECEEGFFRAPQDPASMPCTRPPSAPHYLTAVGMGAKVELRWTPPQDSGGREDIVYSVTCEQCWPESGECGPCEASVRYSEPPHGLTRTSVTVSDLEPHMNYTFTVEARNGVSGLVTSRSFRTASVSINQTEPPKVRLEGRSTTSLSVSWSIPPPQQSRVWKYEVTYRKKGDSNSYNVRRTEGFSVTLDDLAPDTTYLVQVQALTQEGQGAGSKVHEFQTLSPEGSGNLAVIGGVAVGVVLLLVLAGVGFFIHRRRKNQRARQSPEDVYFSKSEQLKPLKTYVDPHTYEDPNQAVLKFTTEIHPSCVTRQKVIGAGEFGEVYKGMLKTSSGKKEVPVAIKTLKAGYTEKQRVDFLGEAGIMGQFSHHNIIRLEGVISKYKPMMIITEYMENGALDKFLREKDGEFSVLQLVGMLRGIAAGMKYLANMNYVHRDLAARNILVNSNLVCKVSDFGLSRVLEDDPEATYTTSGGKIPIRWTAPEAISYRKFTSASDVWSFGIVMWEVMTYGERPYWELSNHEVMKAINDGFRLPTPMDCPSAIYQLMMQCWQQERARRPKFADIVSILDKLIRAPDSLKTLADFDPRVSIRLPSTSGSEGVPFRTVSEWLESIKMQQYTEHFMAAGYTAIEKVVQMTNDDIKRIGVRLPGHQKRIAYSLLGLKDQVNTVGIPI

[8] = target: T8, selected panels of kinases in HeLa and PC3 cell lysates (Homo sapiens, UniProt Q92918); conditions: 10 uM; proteome HEL; peptide […]kMVK; labeling site Lys1
T8 construct: endogenous in cells; host or cells: HeLa and PC3 cell lysates

[9] = target: T9, selected panels of kinases in HeLa and PC3 cell lysates (Homo sapiens, UniProt P15056); conditions: 10 uM; proteome HEL; peptide DLk[…]; labeling site Lys2
T9 construct: endogenous in cells; host or cells: HeLa and PC3 cell lysates

[10] = target: T10, selected panels of kinases in HeLa and PC3 cell lysates (Homo sapiens, UniProt Q9Y2U5); conditions: 10 uM, proteome PC3, labeling site Lys1
T10 construct: endogenous in cells; host or cells: HeLa and PC3 cell lysates
T10 sequence (Q9Y2U5 1-619): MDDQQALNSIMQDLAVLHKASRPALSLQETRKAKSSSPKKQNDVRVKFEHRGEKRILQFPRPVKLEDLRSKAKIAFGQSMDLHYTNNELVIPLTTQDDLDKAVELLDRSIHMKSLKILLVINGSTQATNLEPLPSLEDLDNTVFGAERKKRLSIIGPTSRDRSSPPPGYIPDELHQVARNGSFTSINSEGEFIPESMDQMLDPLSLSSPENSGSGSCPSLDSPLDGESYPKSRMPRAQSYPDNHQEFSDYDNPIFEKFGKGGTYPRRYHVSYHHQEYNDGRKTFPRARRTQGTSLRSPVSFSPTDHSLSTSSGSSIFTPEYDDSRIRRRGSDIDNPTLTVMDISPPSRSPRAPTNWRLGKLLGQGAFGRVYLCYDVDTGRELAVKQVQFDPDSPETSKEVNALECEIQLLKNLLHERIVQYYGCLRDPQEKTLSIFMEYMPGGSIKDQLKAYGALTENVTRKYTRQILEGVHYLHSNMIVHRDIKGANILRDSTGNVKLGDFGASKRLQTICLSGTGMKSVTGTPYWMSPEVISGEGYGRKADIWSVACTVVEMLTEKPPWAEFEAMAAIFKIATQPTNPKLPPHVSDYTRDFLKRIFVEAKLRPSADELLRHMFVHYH

[11] = target: T11, selected panels of kinases in HeLa and PC3 cell lysates (Homo sapiens, UniProt Q99683); conditions: 10 uM; proteome HEL; peptide DIk[…]; labeling site Lys2
T11 construct: endogenous in cells; host or cells: HeLa and PC3 cell lysates

[12] = target: T12, selected panels of kinases in HeLa and PC3 cell lysates (Homo sapiens, UniProt Q9NYL2); conditions: 10 uM, ZAK, peptide […]k, labeling site Lys1
T12 construct: endogenous in cells; host or cells: HeLa and PC3 cell lysates
T12 sequence (Q9NYL2 whole entry): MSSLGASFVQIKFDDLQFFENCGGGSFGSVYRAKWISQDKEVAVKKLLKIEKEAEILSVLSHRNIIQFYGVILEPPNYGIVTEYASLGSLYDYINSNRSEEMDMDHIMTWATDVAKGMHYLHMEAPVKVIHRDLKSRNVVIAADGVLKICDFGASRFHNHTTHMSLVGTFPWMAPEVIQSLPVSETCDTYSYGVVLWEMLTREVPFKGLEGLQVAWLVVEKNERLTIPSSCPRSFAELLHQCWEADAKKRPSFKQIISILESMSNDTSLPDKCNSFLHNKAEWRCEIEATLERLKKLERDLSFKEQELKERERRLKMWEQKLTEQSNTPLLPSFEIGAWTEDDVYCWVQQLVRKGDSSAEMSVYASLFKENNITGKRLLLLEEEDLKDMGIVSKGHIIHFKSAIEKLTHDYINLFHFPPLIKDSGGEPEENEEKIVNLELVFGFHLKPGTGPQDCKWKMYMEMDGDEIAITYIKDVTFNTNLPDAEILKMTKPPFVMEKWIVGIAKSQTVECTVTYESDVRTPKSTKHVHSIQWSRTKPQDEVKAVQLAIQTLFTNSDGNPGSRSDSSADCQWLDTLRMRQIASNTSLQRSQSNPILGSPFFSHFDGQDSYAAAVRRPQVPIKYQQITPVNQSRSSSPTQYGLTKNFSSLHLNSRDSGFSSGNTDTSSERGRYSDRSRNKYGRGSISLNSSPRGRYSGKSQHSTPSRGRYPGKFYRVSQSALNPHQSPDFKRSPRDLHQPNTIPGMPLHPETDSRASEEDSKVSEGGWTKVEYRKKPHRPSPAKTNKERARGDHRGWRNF

[13] = peptide IPVAIkELR, labeling site Lys1
[14] = peptide ITDFGLAkLLGAEEK, labeling site Activation Loop
[15] = peptide […]kVPIK, labeling site Activation Loop
[16] = peptide EVPVAIkTLK, labeling site Lys1
[17] = peptide […]kIPIR, labeling site Activation Loop

T1 sequence (Q9Y4K4 whole entry): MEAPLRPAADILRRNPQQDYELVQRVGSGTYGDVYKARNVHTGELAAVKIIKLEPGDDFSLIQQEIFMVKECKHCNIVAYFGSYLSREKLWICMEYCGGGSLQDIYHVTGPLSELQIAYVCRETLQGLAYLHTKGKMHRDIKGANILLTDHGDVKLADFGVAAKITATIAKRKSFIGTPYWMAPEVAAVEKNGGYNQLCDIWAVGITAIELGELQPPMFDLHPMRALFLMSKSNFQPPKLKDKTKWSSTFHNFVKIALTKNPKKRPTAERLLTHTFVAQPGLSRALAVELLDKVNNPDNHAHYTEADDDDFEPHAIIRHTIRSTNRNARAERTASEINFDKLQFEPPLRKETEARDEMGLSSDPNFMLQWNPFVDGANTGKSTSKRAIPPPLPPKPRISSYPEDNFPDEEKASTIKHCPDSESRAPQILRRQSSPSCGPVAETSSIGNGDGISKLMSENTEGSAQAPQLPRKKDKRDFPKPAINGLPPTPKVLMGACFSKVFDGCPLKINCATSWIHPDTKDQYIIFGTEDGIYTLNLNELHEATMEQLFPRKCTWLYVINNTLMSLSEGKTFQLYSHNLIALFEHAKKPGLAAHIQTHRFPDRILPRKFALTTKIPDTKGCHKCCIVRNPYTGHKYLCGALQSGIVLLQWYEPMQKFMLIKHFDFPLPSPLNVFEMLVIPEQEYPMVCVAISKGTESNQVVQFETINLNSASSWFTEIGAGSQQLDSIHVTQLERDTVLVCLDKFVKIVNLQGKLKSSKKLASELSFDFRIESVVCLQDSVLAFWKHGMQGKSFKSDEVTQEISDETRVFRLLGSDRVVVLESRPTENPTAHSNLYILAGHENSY

SMILES	% Inhibiton, KHS1 [1]	% Inhibition RSK1 domain1 [2]	% Inhibiton, IRAK4 ([3]; proteome HEL)	% Inhibiton, IRAK4 ([3]; proteome PC3)	% Inhibiton, EGFR [4, 13]	% Inhibiton, EGFR [4, 14]	% Inhibiton, EGFR [4, 15]	% Inhibiton, MST1 ([5]; proteome HEL)	% Inhibiton, MST1 ([5]; proteome PC3)	% Inhibiton, Erk1 ([6]; proteome HEL)	% Inhibiton, Erk1 ([6]; proteome PC3)	% Inhibiton, EphA2 [7, 16]	% Inhibiton, EphA2 [7, 17]	% Inhibiton, HPK1 [8]	% Inhibiton, BRAF [9]	% Inhibiton, MAP3K2 ([10]; peptide ELAVk[…])	% Inhibiton, MAP3K2 ([10]; peptide […]k[…])	% Inhibiton, MAP3K5 [11]	% Inhibition ZAK ([12]; proteome HEL)	% Inhibition ZAK ([12]; proteome PC3)
CCOc1cc(C(=O)N2CCC(N3CCN(C)CC3)CC2)ccc1Nc1ncc2c(n1)N(C1CCCC1)c1ccccc1C(=O)N2C [Compound 26]	-7.1%	5.6%	-2.3%	1.4%	-3.3%	-5.7%	-8.1%	15.9%	-17.2%	-1.3%	-0.2%	-1.4%	-3%	-10.9%	8.6%	-11.2%	-12.3%	-8.4%	13.4%	-25.5%
COc1cc(C(=O)N2CCC(N3CCN(C)CC3)CC2)ccc1Nc1ncc2c(n1)N(C1CCCC1)c1ccccc1C(=O)N2C [Compound 25, 11-cyclopentyl-2-((2-methoxy-4-(4-(4-methylpiperazin-1-yl)piperidine-1-carbonyl)phenyl)amino)-5-methyl-5H-benzo[e]pyrimido[5,4-b][1,4]diazepin-6(11H)-one]	-6.6%	0.161%	13.4%	-7.4%	-6.4%	-31.1%	-10.1%	-9.9%	-0.157%	20.3%	8.4%	-0.8%	-2.3%	-8.3%	-0.2%	15.5%	23.7%	17.3%	-6.6%	-9.3%

— article PMC3914206
